According to patent US10954269B2, “Anti-inflammatory tripeptides” (Dr. August Wolff Gmbh & Co. KG Arzneimittel, priority 2013, dated 2021):

What was measured:
[1] = test system: human keratinocyte cell line (HaCaT); test: Cytokine secretion on protein level in activated human keratinocyte cell line HaCaT (13-plex FACS / Luminex, supernatant); assay type: cell-based; settings: for IL-1 cytokine concentration / IL-2 cytokine concentration / IL-4 cytokine concentration / IL-5 cytokine concentration / IL-6 cytokine concentration / IL-9 cytokine concentration / IL-10 cytokine concentration / IL-13 cytokine concentration / IL-17 cytokine concentration / TNF-α cytokine concentration / IL-12p70 cytokine concentration / IL-22 cytokine concentration / IFN-γ cytokine concentration: 10^−9M; for IL-12p70 cytokine concentration / IL-22 cytokine concentration: excluded from the final assessment
Summary of the method: (§1)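 First, T-cells are isolated from healthy donors' blood. Next, they and HaCaT keratinocytes are activated for 48 h with PMA/Ionomycin or IFN-γ in the presence of tripeptides. Finally, secreted cytokines are quantified in supernatants by 13-plex FACS at 48 and 72 h.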

primary murine T-cells = test: Cytokine secretion on protein level in activated primary murine T-cells (13-plex FACS / Luminex, supernatant); assay type: cell-based, C57BL/6 mice; settings: 10^−9M
Summary of the method: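 T-cells from secondary lymphatic organs of naïve C57BL/6 mice, stimulated with PMA/Ionomycin or IFN-γ; supernatant cytokines measured by 13-plex FACS 48 h and 72 h after stimulation. In another run, PMA/Ionomycin-stimulated cells received compounds at 10^−7, 10^−9 and 10^−11 M, with IFN-γ, IL-17 and IL-10 measured by Luminex.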

primary human T-cells = test: Cytokine secretion on protein level in activated primary human T-cells (13-plex FACS / Luminex, supernatant); assay type: cell-based; settings: 10^−9M
Summary of the method: as §1

[2] = HaCaT stimulated with PMA/Ionomycin
[3] = primary murine T-cells stimulated with IFN-γ
[4] = primary murine T-cells stimulated with PBS
[5] = primary murine T-cells stimulated with PMA/Ionomycin
[6] = primary murine T-cells stimulated with PMA/Ionomycin, 1:10 dilution of the supernatants
[7] = primary human T-cells stimulated with IFN-γ
[8] = primary human T-cells stimulated with PBS
[9] = primary human T-cells stimulated with PMA/Ionomycin

“H-(L)-Lys-(D)-Pro-N^α-methyl-(L)-Thr-OH [Example 2]” gave an IL-1 cytokine concentration ([1]; HaCaT stimulated with IFN-γ) of 265.46 pg/mL, an IL-2 cytokine concentration ([1]; HaCaT stimulated with IFN-γ) of 96.34 pg/mL and an IL-4 cytokine concentration ([1]; HaCaT stimulated with IFN-γ) of 71.76 pg/mL. The IL-5 cytokine concentration ([1]; HaCaT stimulated with IFN-γ) was 109.73 pg/mL, the IL-6 cytokine concentration ([1]; HaCaT stimulated with IFN-γ) was 641.89 pg/mL and the IL-9 cytokine concentration ([1]; HaCaT stimulated with IFN-γ) was 104.08 pg/mL. The IL-10 cytokine concentration ([1]; HaCaT stimulated with IFN-γ) was 129.2 pg/mL, the IL-13 cytokine concentration ([1]; HaCaT stimulated with IFN-γ) was 61.18 pg/mL and the IL-17 cytokine concentration ([1]; HaCaT stimulated with IFN-γ) was 629.16 pg/mL. The TNF-α cytokine concentration ([1]; HaCaT stimulated with IFN-γ) was 79.97 pg/mL, the IL-12p70 cytokine concentration ([1]; HaCaT stimulated with IFN-γ) was 1904.09 pg/mL and the IL-22 cytokine concentration ([1]; HaCaT stimulated with IFN-γ) was 0 pg/mL. It also gave an IFN-γ cytokine concentration ([1]; HaCaT stimulated with PBS) of 397.45 pg/mL, an IL-1 cytokine concentration ([1]; HaCaT stimulated with PBS) of 251.25 pg/mL and an IL-2 cytokine concentration ([1]; HaCaT stimulated with PBS) of 177.85 pg/mL. It also gave an IL-4 cytokine concentration ([1]; HaCaT stimulated with PBS) of 90.8 pg/mL, an IL-5 cytokine concentration ([1]; HaCaT stimulated with PBS) of 189.12 pg/mL and an IL-6 cytokine concentration ([1]; HaCaT stimulated with PBS) of 75.53 pg/mL. The IL-9 cytokine concentration ([1]; HaCaT stimulated with PBS) was 139.65 pg/mL, the IL-10 cytokine concentration ([1]; HaCaT stimulated with PBS) was 151.26 pg/mL and the IL-13 cytokine concentration ([1]; HaCaT stimulated with PBS) was 69.36 pg/mL. It also gave an IL-17 cytokine concentration ([1]; HaCaT stimulated with PBS) of 569.9 pg/mL, a TNF-α cytokine concentration ([1]; HaCaT stimulated with PBS) of 84.84 pg/mL and an IL-12p70 cytokine concentration ([1]; HaCaT stimulated with PBS) of 1864.02 pg/mL. It also gave an IL-22 cytokine concentration ([1]; HaCaT stimulated with PBS) of 14446.9 pg/mL, an IFN-γ cytokine concentration [1, 2] of 704.33 pg/mL and an IL-1 cytokine concentration [1, 2] of 204.23 pg/mL. The IL-2 cytokine concentration [1, 2] was 130.08 pg/mL, the IL-4 cytokine concentration [1, 2] was 58.48 pg/mL and the IL-5 cytokine concentration [1, 2] was 129.65 pg/mL. For the same substance, the IL-6 cytokine concentration [1, 2] was 129.99 pg/mL, the IL-9 cytokine concentration [1, 2] was 104.14 pg/mL and the IL-10 cytokine concentration [1, 2] was 97.55 pg/mL. It also gave an IL-13 cytokine concentration [1, 2] of 69.36 pg/mL, an IL-17 cytokine concentration [1, 2] of 369.01 pg/mL and a TNF-α cytokine concentration [1, 2] of 62.15 pg/mL. The IL-12p70 cytokine concentration [1, 2] was 0 pg/mL, the IL-22 cytokine concentration [1, 2] was 14806.4 pg/mL and the “secretion / expression of pro-inflammatory cytokines (supernatant)” value ([1]; activated human keratinocytes) was “decreased secretion”. The IL-1 cytokine concentration (primary murine T-cells; [3]) was 22.78 pg/mL, the IL-2 cytokine concentration (primary murine T-cells; [3]) was 0 pg/mL and the IL-4 cytokine concentration (primary murine T-cells; [3]) was 0 pg/mL. It also gave an IL-5 cytokine concentration (primary murine T-cells; [3]) of 72.11 pg/mL, an IL-6 cytokine concentration (primary murine T-cells; [3]) of 23.14 pg/mL and an IL-10 cytokine concentration (primary murine T-cells; [3]) of 72.95 pg/mL. For the same substance, the IL-13 cytokine concentration (primary murine T-cells; [3]) was 0 pg/mL, the IL-17 cytokine concentration (primary murine T-cells; [3]) was 0 pg/mL and the IL-21 cytokine concentration (primary murine T-cells; [3]) was 0 pg/mL. For the same substance, the IL-22 cytokine concentration (primary murine T-cells; [3]) was 8.52 pg/mL, the IL-27 cytokine concentration (primary murine T-cells; [3]) was 1234.48 pg/mL and the TNF-α cytokine concentration (primary murine T-cells; [3]) was 0 pg/mL. The IFN-γ cytokine concentration (primary murine T-cells; [4]) was 2375.02 pg/mL, the IL-1 cytokine concentration (primary murine T-cells; [4]) was 36.6 pg/mL and the IL-2 cytokine concentration (primary murine T-cells; [4]) was 138.15 pg/mL. For the same substance, the IL-4 cytokine concentration (primary murine T-cells; [4]) was 0 pg/mL, the IL-5 cytokine concentration (primary murine T-cells; [4]) was 45.71 pg/mL and the IL-6 cytokine concentration (primary murine T-cells; [4]) was 0 pg/mL. The IL-10 cytokine concentration (primary murine T-cells; [4]) was 0 pg/mL, the IL-13 cytokine concentration (primary murine T-cells; [4]) was 0 pg/mL and the IL-17 cytokine concentration (primary murine T-cells; [4]) was 0 pg/mL. The IL-21 cytokine concentration (primary murine T-cells; [4]) was 0 pg/mL, the IL-22 cytokine concentration (primary murine T-cells; [4]) was 0 pg/mL and the IL-27 cytokine concentration (primary murine T-cells; [4]) was 0 pg/mL. The TNF-α cytokine concentration (primary murine T-cells; [4]) was 0 pg/mL, the IL-1 cytokine concentration (primary murine T-cells; [5]) was 0 pg/mL and the IL-4 cytokine concentration (primary murine T-cells; [5]) was 129.47 pg/mL. For the same substance, the IL-5 cytokine concentration (primary murine T-cells; [5]) was 350.49 pg/mL, the IL-6 cytokine concentration (primary murine T-cells; [5]) was 338.28 pg/mL and the IL-10 cytokine concentration (primary murine T-cells; [5]) was 155.42 pg/mL. It also gave an IL-13 cytokine concentration (primary murine T-cells; [5]) of 4703.82 pg/mL, an IL-17 cytokine concentration (primary murine T-cells; [5]) of 649.14 pg/mL and an IL-21 cytokine concentration (primary murine T-cells; [5]) of 0 pg/mL. For the same substance, the IL-22 cytokine concentration (primary murine T-cells; [5]) was 670.15 pg/mL, the IL-27 cytokine concentration (primary murine T-cells; [5]) was 778.4 pg/mL and the TNF-α cytokine concentration (primary murine T-cells; [5]) was 628.15 pg/mL. For the same substance, the “IFN-γ* cytokine concentration” value (primary murine T-cells; [6]) was 0 pg/mL, the “IL-2* cytokine concentration” value (primary murine T-cells; [6]) was 744.58 pg/mL and the IL-1 cytokine concentration (primary human T-cells; [7]) was 314.88 pg/mL. For the same substance, the IL-2 cytokine concentration (primary human T-cells; [7]) was 740.3 pg/mL, the IL-4 cytokine concentration (primary human T-cells; [7]) was 116.26 pg/mL and the IL-5 cytokine concentration (primary human T-cells; [7]) was 177.72 pg/mL. The IL-6 cytokine concentration (primary human T-cells; [7]) was 97.68 pg/mL, the IL-9 cytokine concentration (primary human T-cells; [7]) was 106.37 pg/mL and the IL-10 cytokine concentration (primary human T-cells; [7]) was 146.79 pg/mL. It also gave an IL-12p70 cytokine concentration (primary human T-cells; [7]) of 804.93 pg/mL, an IL-13 cytokine concentration (primary human T-cells; [7]) of 97.39 pg/mL and an IL-17 cytokine concentration (primary human T-cells; [7]) of 168.9 pg/mL. The IL-22 cytokine concentration (primary human T-cells; [7]) was 21970.6 pg/mL, the TNF-α cytokine concentration (primary human T-cells; [7]) was 188.29 pg/mL and the IFN-γ cytokine concentration (primary human T-cells; [8]) was 0 pg/mL. For the same substance, the IL-1 cytokine concentration (primary human T-cells; [8]) was 305.62 pg/mL, the IL-2 cytokine concentration (primary human T-cells; [8]) was 985.16 pg/mL and the IL-4 cytokine concentration (primary human T-cells; [8]) was 151.33 pg/mL. For the same substance, the IL-5 cytokine concentration (primary human T-cells; [8]) was 310.87 pg/mL, the IL-6 cytokine concentration (primary human T-cells; [8]) was 84.38 pg/mL and the IL-9 cytokine concentration (primary human T-cells; [8]) was 116.55 pg/mL. It also gave an IL-10 cytokine concentration (primary human T-cells; [8]) of 253.29 pg/mL, an IL-12p70 cytokine concentration (primary human T-cells; [8]) of 226.23 pg/mL and an IL-13 cytokine concentration (primary human T-cells; [8]) of 90.3 pg/mL. It also gave an IL-17 cytokine concentration (primary human T-cells; [8]) of 238.4 pg/mL, an IL-22 cytokine concentration (primary human T-cells; [8]) of 2242.06 pg/mL and a TNF-α cytokine concentration (primary human T-cells; [8]) of 211.85 pg/mL. The IFN-γ cytokine concentration (primary human T-cells; [9]) was 2726.77 pg/mL, the IL-1 cytokine concentration (primary human T-cells; [9]) was 69689.2 pg/mL and the IL-2 cytokine concentration (primary human T-cells; [9]) was 12000 pg/mL. It also gave an IL-4 cytokine concentration (primary human T-cells; [9]) of 239.02 pg/mL, an IL-5 cytokine concentration (primary human T-cells; [9]) of 325.76 pg/mL and an IL-6 cytokine concentration (primary human T-cells; [9]) of 1533.99 pg/mL. For the same substance, the IL-9 cytokine concentration (primary human T-cells; [9]) was 142.93 pg/mL, the IL-10 cytokine concentration (primary human T-cells; [9]) was 3938.15 pg/mL and the IL-12p70 cytokine concentration (primary human T-cells; [9]) was 1413.17 pg/mL. For the same substance, the IL-13 cytokine concentration (primary human T-cells; [9]) was 760.63 pg/mL, the IL-17 cytokine concentration (primary human T-cells; [9]) was 3476.92 pg/mL and the IL-22 cytokine concentration (primary human T-cells; [9]) was 24128.2 pg/mL. For the same substance, the TNF-α cytokine concentration (primary human T-cells; [9]) was 3600 pg/mL.
